Measurements reported in patent EP4563579A1, “MACROCYCLIC EGFR INHIBITOR, AND PREPARATION METHOD THEREFOR AND PHARMACEUTICAL USE THEREOF” (Abbisko Therapeutics Co., Ltd., priority 2022, dated 2024).
Where two headings read alike, the source gives them in different places.

What was measured:
[1] = system: Ba/F3 EGFR-DEL19-T790M-C797S (DTC); experiment: Cell proliferation assay (CellTiter-Glo), Ba/F3 DTC; type: cell-based; conditions: Ba/F3 EGFR-DEL19-T790M-C797S cells, 72 hour incubation, CTG readout; read-out: IC50 BaF3 DTC
Procedure: (§1) • DMEM Medium (Gibco, Cat#11965118) • RPMI1640 Medium (Gibco, Cat#11875119) • Fetal Bovine Serum (FBS) (GBICO, Cat#10099-141) • CellTiter-Glo® Luminescent Cell Viability Assay Kit (Promega, Cat#G7572) 96-well, Black, Clear Flat Bottom Plate (Corning®, Cat# 3603)
(§2) • SpectraMax Multimode Microplate Reader MD, 2104-0010A; • CO2 Incubator, Thermo Scientific 3100 Series; • Biosafety Cabinet, Thermo Scientific, 1300 Series A2; • Inverted Microscope, Olympus, CKX41SF; • Siemens Refrigerator, KK25E76TI.
(§3) • 1. Cell Culture and Inoculation: • (1) Harvest cells in a logarithmic growth phase and count the cells using a […]. Test cell viability using a trypan blue exclusion method to ensure that cell viability is above 90%. • (2) Adjust the cell concentration to desired final density; and add 90 µL of cell suspension to a 96-well plate. • (3) Incubate the cells overnight at 37°C, under 5% CO2 and 95% humidity in the 96-well plate. • 2. T0 Reference Data: • (1) Add 10 µL PBS to each well of the T0 plate containing cells. • (2) Thaw the CTG reagent and equilibrate the plate to room temperature for 30 minutes. • (3) Add an equal volume of CTG solution to each well. • (4) Lyse cells by shaking on an orbital shaker for 5 minutes. • (5) Leave the plate at room temperature for 20 minutes to stabilize the luminescence signal. • (6) Read the T0 […]. • 3. Compound Dilution and Addition • (1) Add a corresponding volume of DMSO to a corresponding compound powder according to the compound information sheet to prepare a 10 mM stock solution. • (2) Prepare 1000-fold and 3.16-fold diluted compound solutions. • (3) Dilute the 1000× diluted compound solution 100-fold with PBS to prepare a 10-fold compound solution, with a maximum concentration of 10 µM, nine concentrations and 3.16-fold dilution. Then add 10 µL of the drug solution concentration to individual wells of the 96-well plate seeded with cells. Test each compound concentration in triplicate wells, and the final DMSO concentration is 0.1%. • (4) Incubate the cells in the 96-well plate containing the drug compounds at 37°C, under 5% CO2, and 95% humidity for an additional 72 hour period prior to performing the CTG analysis. • 4. Fluorescence Signal Reading • (1) Thaw the CTG reagent and equilibrate the plate to room temperature for 30 minutes. • (2) Add an equal volume of CTG solution to each well. • (3) Lyse cells by shaking on an orbital shaker for 5 minutes. • (4) Leave the plate at room temperature for 20 minutes to stabilize the […]. • (5) Read fluorescence value. • 5. Data Processing
(§4) Analyze the data by using GraphPad Prism 7.0 software, and use Non-linear S-curve regression to fit the dose-response curves, to calculate the IC50 values (in nM). The specific experiment results are presented in Table 1: [formula] Table 1: Biology Test Results

[2] = system: Ba/F3 EGFR-L858R-C797S (LC); experiment: Cell proliferation assay (CellTiter-Glo), Ba/F3 LC; type: cell-based; conditions: Ba/F3 EGFR-L858R-C797S cells, 72 hour incubation, CTG readout
Procedure: as §1, §2, §3, §4

A431 WT = experiment: Cell proliferation assay (CellTiter-Glo), A431 WT; type: cell-based; conditions: A431 WT cells, 72 hour incubation, CTG readout
Procedure: as §1, §2, §3, §4

[3] = system: Ba/F3 EGFR-DEL19-C797S (DC); experiment: Cell proliferation assay (CellTiter-Glo), Ba/F3 DC; type: cell-based; conditions: Mus musculus, BaF3; Ba/F3 EGFR-DEL19-C797S cells, 72 hour incubation, CTG readout
Procedure: as §1, §2, §3, §4

[4] = system: Ba/F3 EGFR-L858R-T790M-C797S (LTC); experiment: Cell proliferation assay (CellTiter-Glo), Ba/F3 LTC; type: cell-based; conditions: Ba/F3 EGFR-L858R-T790M-C797S cells, 72 hour incubation, CTG readout
Procedure: as §1, §2, §3, §4

[5] = Pharmacokinetic experiment in mice; type: in vivo; conditions: male, mouse; ICR mice, single oral administration (PO), 10 mg/kg, plasma
Description: The purpose of this trial is to study the pharmacokinetic behavior of some compounds of the present invention, and the administration method is: Single oral administration (PO) to ICR mice.
The compounds used in this trial are from the compounds in the specific examples of the present invention and the listed positive compounds.
ICR mice male N=9 original source: Shanghai Sippr-Bk Lab Animal Co., Ltd.
The compounds are weighed and dissolved in the corresponding solution (10% PG + 10% Solutol® + 80% pH3 citrate buffer). The mixture is then shaken well and sonicated to prepare a 1 mg/mL stock solution. Nine mice are orally administered at a dose of 10 mg/kg (or IV 2 mg/kg) after an overnight fast.
About 90 µL of blood is collected via the submandibular vein per time point, heparin sodium anticoagulant is added, the sample is placed on ice after collection, and plasma is centrifuged within 1 hour (centrifugation conditions: 8,000 rpm, 6 minutes, 2-8°C). The blood collection timepoints are 0, 0.25, 0.5, 1, 2, 4, 6, 8 and 24 h. The samples are stored in a -20°C refrigerator.
The plasma sample is 40 µL, 160 µL of ice-cold acetonitrile containing internal standard is added, vortexed for 3 minutes, and centrifuged at 11,000 rpm for 5 minutes. 100 µL of the supernatant is taken and added to 100 µL of water, 5 µL of the sample is taken and injected into LC/MS/MS for analysis.

Row | Structure (SMILES) | IC50 [1] [nM] | IC50 ([2]; Mus musculus, BaF3) [nM] | IC50 (A431 WT; Homo sapiens, A-431) [nM] | IC50 [3] [nM] | IC50 ([4]; Mus musculus, BaF3) [nM] | AUC(0-t) [5] [ng·h/mL] | Cmax [5] [ng/mL] | half-life [5] [h] | IC50 ([2]; read-out: IC50 BaF3 LC) [nM] | IC50 (A431 WT) [nM] | IC50 ([4]; read-out: IC50 BaF3 LTC) [nM]
1 | CN1CCC(C#Cc2nn3c4cc(ncc24)Nc2ccnc(n2)-c2cnn(C)c2OCC2(CCCC2)C3)C1 (stereo not drawn) [Example 2, 1'-methyl-3-((1-methylpyrrolidin-3-yl)ethynyl)spiro(cyclopentane-1,6'-8-oxa-3-aza-4(6,1)-pyrazolo[4,3-c]pyridina-2(2,4)-pyrimidina-1(4,5)-pyrazolacyclooctaphane)] | 17.5 | 21.1 | 603 | 30.4 | 12.8 | – | – | – | – | – | –
2 | CN1CCC(C#Cc2nn3c4cc(ncc24)Nc2ccnc(n2)-c2cnn(C)c2OCC2(CCOCC2)C3)CC1 [Example 4, 1'-methyl-3'-((1-methylpiperidin-4-yl)ethynyl)-2,3,5,6-te trahydrospiro(pyran-4,6'-8-oxa-3-aza-4(6,1)-pyrazolo[4,3-c]pyridina-2(2,4)-pyrimidina-1(4,5)-pyrazolacyclooctaphane)] | 15.6 | 50.3 | 822 | 26.8 | 12.4 | – | – | – | – | – | –
3 | CN1CCC(C#Cc2nn3c4cc(ncc24)Nc2ccnc(n2)-c2cnn(C)c2OCC2(CCC2)C3)CC1 [Example 5, 1'-methyl-3'-((1-methylpiperidin-4-yl)ethynyl)spiro(cyclobutane-1,6'-8-oxa-3-aza-4(6,1)-pyrazolo[4,3-c]pyridina-2(2,4)-pyrimidina-1(4,5)-pyrazolacyclooctaphane)] | 4.7 | 14 | 1080 | 19.7 | 9.2 | – | – | – | – | – | –
4 | CCN1CCC(C#Cc2nn3c4cc(ncc24)Nc2ccnc(n2)-c2cnn(C)c2OCC2(CCCC2)C3)CC1 [Example 7, 3'-((1-ethylpiperidin-4-yl)ethynyl)-1'-methylspiro(cyclopentane-1,6'-8-oxa-3-aza-4(6,1)-pyrazolo[4,3-c]pyridina-2(2,4)-pyrimidina-1(4,5)-pyrazolacyclooctaphane)] | – | 43.5 | 1660 | – | 24.6 | 2520 | 193 | 5.6 | – | – | –
5 | CN1CC(C#Cc2nn3c4cc(ncc24)Nc2ccnc(n2)-c2cnn(C)c2OCC2(CCCC2)C3)C1 [Example 8, 1'-methyl-3'-((1-methylazetidin-3-yl)ethynyl)spiro(cyclopentane-1,6'-8-oxa-3-aza-4(6,1)-pyrazolo[4,3-c]pyridina-2(2,4)-pyrimidina-1(4,5)-pyrazolacyclooctaphane)] | 27.8 | 63.5 | 499 | 31.5 | 39.4 | – | – | – | – | – | –
6 | Cn1ncc2c1OCC1(CCCC1)Cn1nc(N3CC[C@@H](O)C3)c3cnc(cc31)Nc1ccnc-2n1 [Example 22, (R)-1-(1'-methylspiro(cyclopentane-1,6'-8-oxa-3-aza-4(6,1)-pyrazolo[4,3-c]pyridina-2(2,4)-pyrimidina-1(4,5)-pyrazolacyclooctaphane)-3' -yl)pyrrolidin-3-ol] | – | 13.2 | 409 | – | 5.9 | 2340 | 503 | 3 | – | – | –
7 | CC(=O)N[C@@H]1CCN(c2nn3c4cc(ncc24)Nc2ccnc(n2)-c2cnn(C)c2OCC2(CCCC2)C3)C1 [Example 49] | – | – | – | – | – | – | – | – | 59.9 | 926 | 29.6

Continued, in another order:

Row | IC50 [1] [nM] | IC50 ([2]; Mus musculus, BaF3) [nM] | IC50 (A431 WT; Homo sapiens, A-431) [nM] | IC50 [3] [nM] | IC50 ([4]; Mus musculus, BaF3) [nM] | AUC(0-t) [5] [ng·h/mL] | Cmax [5] [ng/mL] | half-life [5] [h] | Structure (SMILES) | IC50 ([2]; read-out: IC50 BaF3 LC) [nM] | IC50 (A431 WT) [nM] | IC50 ([4]; read-out: IC50 BaF3 LTC) [nM]
8 | 0.7 | – | 378 | 4.4 | 6.1 | – | – | – | Cn1ncc2c1OCC1(CCCC1)Cn1nc(N3CC[C@@](C)(O)C3)c3cnc(cc31)Nc1ccnc-2n1 [Example 24, (R)-3-methyl-1-(1'-methylspiro(cyclopentane-1,6'-8-oxa-3-aza-4(6,1)-pyrazolo[4,3-c]pyridina-2(2,4)-pyrimidina-1(4,5)-pyrazolacyclooctaphane)-3'-yl)pyrrolidin-3-ol] | – | – | –
9 | – | 2.1 | 320 | – | 0.7 | 4940 | 1350 | 3.5 | Cn1ncc2c1OCC1(CCCC1)Cn1nc(N3CC[C@H](CS(=O)(=O)C4CC4)C3)c3cnc(cc31)Nc1ccnc-2n1 [Example 40, (S)-3'-(3-((cyclopropylsulfonyl)methyl)pyrrolidin-1-yl)-1'-methylspiro(cyclopentane-1,6'-8-oxa-3-aza-4(6,1)-pyrazolo[4,3-c]pyridina-2(2, 4)-pyrimidina-1(4,5)-pyrazolacyclooctaphane)] | – | – | –
10 | – | 82 | 2570 | – | 35.2 | – | – | – | Cn1ncc2c1OCC1(CCCC1)Cn1nc(N3CC[C@H](NC(=O)OC(C)(C)C)C3)c3cnc(cc31)Nc1ccnc-2n1 [Example 47, Tert-butyl (S)-(1-(1'-methylspiro(cyclopentane-1,6'-8-oxa-3-aza-4(6,1)-pyrazolo[4,3-c]pyridina-2(2,4)-pyrimidina-1(4,5) -pyrazolacyclooctaphane)-3 '-yl)pyrrolidin-3-yl)carbam ate] | – | – | –
11 | – | 86.5 | 1060 | – | 20.7 | – | – | – | Cn1ncc2c1OCC1(CCCC1)Cn1nc(N3CC[C@@H](NC(=O)C(F)(F)F)C3)c3cnc(cc31)Nc1ccnc-2n1 [Example 50] | – | – | –
12 | – | 36.5 | 843 | – | 12.5 | – | – | – | Cn1ncc2c1OCC1(CCCC1)Cn1nc(N3CC[C@H](NC(=O)C(F)(F)F)C3)c3cnc(cc31)Nc1ccnc-2n1 [Example 56] | – | – | –
13 | – | 176 | 2490 | – | 167 | – | – | – | C[C@H]1CCOc2c(cnn2C)-c2nccc(n2)Nc2cc3c(cn2)c(C#CC2CN(C)C2)nn31 [Example A2, (S)-1^1,5-dimethyl-4^3-((1-methylazetidin-3-yl)ethynyl)-1^1 H,4^1H-8-oxa-3-aza-4(6,1)-p yrazolo[4,3-c]pyridina-2(2,4)-pyrimidina-1(4,5)-pyrazol acyclooctaphane] | – | – | –
14 | – | 53.3 | 1840 | – | 62.1 | – | – | – | C[C@H]1CCOc2c(cnn2C)-c2nccc(n2)Nc2cc3c(cn2)c(C#CC2CCN(C)CC2)nn31 [Example A3, (S)-1^1,5-dimethyl-4^3-((1-methylpiperidin-4-yl)ethynyl)-1^1H,4^1H-8-oxa-3-aza-4(6,1) -pyrazolo[4,3-c]pyridina-2(2,4)-pyrimidina-1(4,5)-pyra zolacyclooctaphane] | – | – | –
